Data as given in patent US7550485B2, “Substituted N-heterocycle derivatives and methods of their use” (Wyeth, priority 2003, dated 2009).
Where a name gives a salt, the structure may show the parent alone.

Target: T1, hNET (Homo sapiens, UniProt P23975)
T1 construct: expressed in transfected cells
Assay: Norepinephrine (NE) uptake assay in MDCK-Net6 cells stably transfected with human hNET
Type: cell-based
Details: [3H]NE uptake; for inhibition at 1 µM: MDCK-Net6, 1 μM test compound; for EC50: test range 1 to 10,000 nM
Summary of the method: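 MDCK-Net6 cells preincubated 20 min at 37 °C with compound (1 to 10,000 nM) in HEPES buffer pH 7.4 with pargyline and ascorbate, then 5 min [3H]NE uptake (120 nM final). Lysed cells counted by scintillation; 1 μM desipramine defined minimum uptake; EC50 from logistic fit of pooled data.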

T1 sequence (P23975 whole entry): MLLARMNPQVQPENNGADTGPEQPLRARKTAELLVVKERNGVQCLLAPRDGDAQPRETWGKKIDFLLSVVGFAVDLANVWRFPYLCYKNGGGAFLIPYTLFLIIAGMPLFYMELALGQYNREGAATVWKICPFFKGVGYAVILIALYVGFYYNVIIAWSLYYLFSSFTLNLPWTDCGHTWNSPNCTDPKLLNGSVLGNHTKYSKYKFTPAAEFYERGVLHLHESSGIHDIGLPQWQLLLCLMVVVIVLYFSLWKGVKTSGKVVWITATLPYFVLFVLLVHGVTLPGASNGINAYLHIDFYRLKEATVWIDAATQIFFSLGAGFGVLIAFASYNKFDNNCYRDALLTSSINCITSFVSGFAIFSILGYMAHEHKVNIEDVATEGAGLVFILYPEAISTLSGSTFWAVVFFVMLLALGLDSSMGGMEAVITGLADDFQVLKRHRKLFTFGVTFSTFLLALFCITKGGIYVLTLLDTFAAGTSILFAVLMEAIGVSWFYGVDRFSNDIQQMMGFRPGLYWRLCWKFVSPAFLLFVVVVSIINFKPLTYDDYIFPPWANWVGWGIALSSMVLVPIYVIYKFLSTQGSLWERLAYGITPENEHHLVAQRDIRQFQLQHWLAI

Compound	inhibition at 1 µM	also measured
CN(C)[C@H]1CCN(CC(c2cccc(C(F)(F)F)c2)C2(O)CCCCC2)C1 (stereo partly drawn) [Example 222, 1-{2-[(3S)-3-(dimethylamino)pyrrolidin-1-yl]-1-[3-(trifluoromethyl)phenyl]ethyl}cyclohexanol dihydrochloride]	31.9%	
N[C@@H]1CCN(CC(c2cccc(C(F)(F)F)c2)C2(O)CCCCC2)C1 (stereo partly drawn) [Example 224, 1-{2-[(3R)-3-aminopyrrolidin-1-yl]-1-[3-(trifluoromethyl)phenyl]ethyl}cyclohexanol dihydrochloride]	27.5%	
CN(C)[C@@H]1CCN(CC(c2cccc(C(F)(F)F)c2)C2(O)CCCCC2)C1 (stereo partly drawn) [Example 225, 1-{2-[(3R)-3-(dimethylamino)pyrrolidin-1-yl]-1-[3-(trifluoromethyl)phenyl]ethyl}cyclohexanol dihydrochloride]	84%	
CNC1CCN(CC(c2cccc(Cl)c2)C2CCCC2)CC1 (stereo not shown) [Example 228, 1-[2-(3-chlorophenyl)-2-cyclopentylethyl]-N-methylpiperidin-4-amine dihydrochloride]	84.2%	
CN(C)C1CCN(CC(c2cccc(Cl)c2)C2CCCC2)CC1 (stereo not shown) [Example 229, 1-[2-(3-chlorophenyl)-2-cyclopentylethyl]-N,N-dimethylpiperidin-4-amine dihydrochloride]	87.3%	
CNC1CCN(CC(c2cccc(Cl)c2)C2CCCCC2)CC1 (stereo not shown) [Example 232, 1-[2-(3-chlorophenyl)-2-cyclohexylethyl]-N-methylpiperidin-4-amine dihydrochloride]	79.1%	
CN(C)C1CCN(CC(c2cccc(Cl)c2)C2CCCCC2)CC1 (stereo not shown) [Example 233, 1-[2-(3-chlorophenyl)-2-cyclohexylethyl]-N,N-dimethylpiperidin-4-amine dihydrochloride]	91.1%	
CNC1CCN(CC(c2cccc(Cl)c2)C2CCCCCC2)CC1 (stereo not shown) [Example 236, 1-[2-(3-chlorophenyl)-2-cycloheptylethyl]-N-methylpiperidin-4-amine dihydrochloride]	49.7%	
CN(C)C1CCN(CC(c2cccc(Cl)c2)C2CCCCCC2)CC1 (stereo not shown) [Example 237, 1-[2-(3-chlorophenyl)-2-cycloheptylethyl]-N,N-dimethylpiperidin-4-amine dihydrochloride]	81.9%	
NC1CCN(CC(c2cccc(Cl)c2)C2CCCCC2O)CC1 (stereo not shown) [Example 239, 2-[2-(4-aminopiperidin-1-yl)-1-(3-chlorophenyl)ethyl]cyclohexanol dihydrochloride]	81.8%	
OC1CCN(CC(c2cccc(OC(F)(F)F)c2)C2(O)CCCCC2)CC1 (stereo not shown) [Example 240, 1-{2-(1-hydroxycyclohexyl)-2-[3-(trifluoromethoxy)phenyl]ethyl}piperidin-4-ol hydrochloride]	4.4%	
OC1CCN(CC(c2ccc(OCc3ccccc3)c(Cl)c2)C2(O)CCCCC2)CC1 (stereo not shown) [Example 241, 1-[2-[4-(benzyloxy)-3-chlorophenyl]-2-(1-hydroxycyclohexyl)ethyl]piperidin-4-ol hydrochloride]	72.5%	
COC1CCN(CC(c2ccc(OCc3ccccc3)c(Cl)c2)C2(O)CCCCC2)CC1 (stereo not shown) [Example 242, 1-[1-[4-(benzyloxy)-3-chlorophenyl]-2-(4-methoxypiperidin-1-yl)ethyl]cyclohexanol hydrochloride]	2%	
CC(C)(O)C(CN1CCC(N)CC1)c1cccc(Cl)c1 (stereo not shown) [Example 273, 4-(4-aminopiperidin-1-yl)-3-(3-chlorophenyl)-2-methylbutan-2-ol dihydrochloride]	79%	
CN(C)C1CCN(CC(c2cccc(Cl)c2)C(C)(C)O)CC1 (stereo not shown) [Example 274, 3-(3-chlorophenyl)-4-[4-(dimethylamino)piperidin-1-yl]-2-methylbutan-2-ol dihydrochloride]	50%	
COc1ccc2scc(C(CN3CCC(N)CC3)C3(O)CCCCC3)c2c1 (stereo not shown) [Example 280, 1-[2-(4-aminopiperidin-1-yl)-1-(5-methoxy-1-benzothien-3-yl)ethyl]cyclohexanol dihydrochloride]	18%	
CCCC(O)(CCC)C(CN1CCC(N)CC1)c1cccc(Cl)c1 (stereo not shown) [Example 282, 4-[2-(4-aminopiperidin-1-yl)-1-(3-chlorophenyl)ethyl]heptan-4-ol dihydrochloride]		inhibition at 10 µM (MDCK-Net6, 10 μM test compound (stated in cell)): 4.1%
OC1(C(CN2CCC(N3CCCCC3)CC2)c2ccc(OC(F)(F)F)cc2)CCCCC1 (stereo not shown) [Example 284, 1-{2-(1,4′-bipiperidin-1′-yl)-1-[4-(trifluoromethoxy)phenyl]ethyl}cyclohexanol dihydrochloride]	91.1%	
NC1CCN(CC(c2ccc(OC(F)(F)F)cc2)C2(O)CCCCC2)CC1 (stereo not shown) [Example 303, 1-{2-(4-aminopiperidin-1-yl)-1-[4-(trifluoromethoxy)phenyl]ethyl}cyclohexanol dihydrochloride]	18.7%	

Compound	inhibition at 1 µM	also measured
NC1CCN(CC(c2ccc(OC(F)(F)F)cc2)C2(O)CCC2)CC1 (stereo not shown) [Example 305, 1-{2-(4-aminopiperidin-1-yl)-1-[4-(trifluoromethoxy)phenyl]ethyl}cyclobutanol dihydrochloride]	49.9%	
NC1CCN(CC(c2ccc(Oc3ccccc3)cc2)C2(O)CCCCC2)CC1 (stereo not shown) [Example 310, 1-{2-(4-aminopiperidin-1-yl)-1-(4-phenoxyphenyl)ethyl]cyclohexanol dihydrochloride]	44.1%	
OC1(C(CN2CCC(N3CCCCC3)CC2)c2cccc(Oc3ccccc3)c2)CCCCC1 (stereo not shown) [Example 314, 1-[2-(1,4′-bipiperidin-1′-yl)-1-[3-(phenoxyphenyl)ethyl]cyclohexanoldihydrochloride]	95.5%	
NC1CCN(CC(c2cccc(Oc3ccccc3)c2)C2(O)CCCCC2)CC1 (stereo not shown) [Example 315, 1-[2-(4-aminopiperidin-1-yl)-1-(3-phenoxyphenyl)ethyl]cyclohexanol dihydrochloride]	75.2%	
OC1(C(CN2CCC(N3CCCC3)CC2)c2cccc(Oc3ccccc3)c2)CCCCC1 (stereo not shown) [Example 316, 1-[1-(3-phenoxyphenyl)-2-(4-pyrrolidin-1-ylpiperidin-1-yl)ethyl]cyclohexanol dihydrochloride]	67.5%	
CN(C)C1CCN(CC(c2ccc3ccccc3c2)C2(O)CCCCC2)CC1 (stereo not shown) [Example 317, 1-[2-[4-(dimethylamino)piperidin-1-yl]-1-(2-naphthyl)ethyl]cyclohexanol dihydrochloride]	21.2%	
COc1ccc(C(CN2CCC(N(C)C)CC2)C2(O)CCCCC2)cc1Br (stereo not shown) [Example 318, 1-{1-(3-bromo-4-methoxyphenyl)-2-[4-(dimethylamino)piperidin-1-yl]ethyl}cyclohexanol dihydrochloride]	84%	
CN(C)C1CCN(CC(c2cccc(Br)c2)C2(O)CCCCC2)CC1 (stereo not shown) [Example 319, 1-{1-(3-bromophenyl)-2-[4-(dimethylamino)piperidin-1-yl]ethyl}cyclohexanol dihydrochloride]	95.4%	
CN(C)C1CCN(CC(c2ccc(Cl)c(Cl)c2)C2(O)CCCCC2)CC1 (stereo not shown) [Example 320, 1-{1-(3,4-dichlorophenyl)-2-[4-(dimethylamino)piperidin-1-yl]ethyl}cyclohexanol dihydrochloride]	88.1%	
CN(C)C1CCN(CC(c2cccc(C(F)(F)F)c2)C2(O)CCCCC2)CC1 (stereo not shown) [Example 321, 1-{2-[4-(dimethylamino)piperidin-1-yl]-1-[3-(trifluoromethyl)phenyl]ethyl}cyclohexanol dihydrochloride]	66.1%	
NC1CCN(CC(c2cccc(Cl)c2)C2(O)CCC3CCCCC3C2)CC1 (stereo not shown) [Example 327, 2-[2-(4-aminopiperidin-1-yl-1-(3-chlorophenyl)ethyl]decahydronaphthalen-2-oldihydrochloride]	3%	
CC1CCC(O)(C(CN2CCC(N)CC2)c2cccc(Cl)c2)CC1 (stereo not shown) [Example 330, 1-[2-(4-aminopiperidin-1-yl)-1-(3-chlorophenyl)ethyl]-4-methylcyclohexanol dihydrochloride]	43.9%	
COC1CCN(CC(c2ccc(OCc3ccccc3)c(Cl)c2)C2(O)CCCCC2)CC1 (stereo not shown) [Example 339, 1-[1-[4-(benzyloxy)-3-chlorophenyl]-2-(4-methoxypiperidin-1-yl)ethyl]cyclohexanol hydrochloride]		inhibition at 30 µM (MDCK-Net6, 30 μM test compound (stated in cell)): 94%
COc1ccc2cc(C(CN3CCC(N)CC3)C3(O)CCCCC3)ccc2c1 (stereo not shown) [Example 342, 1-[2-(4-aminopiperidin-1-yl)-1-(6-methoxy-2-naphthyl)ethyl]cyclohexanol dihydrochloride]	59%	EC50: 390 nM
COc1ccc2cc(C(CN3CCC(N(C)C)CC3)C3(O)CCCCC3)ccc2c1 (stereo not shown) [Example 343, 1-[2-[4-(dimethylamino)piperidin-1-yl]-1-(6-methoxy-2-naphthyl)ethyl]cyclohexanol dihydrochloride]	48%	
CNC1CCN(CC(c2ccc3cc(OC)ccc3c2)C2(O)CCCCC2)CC1 (stereo not shown) [Example 344, 1-{1-(6-methoxy-2-naphthyl)-2-[4-(methylamino)piperidin-1-yl]ethyl}cyclohexanol dihydrochloride]	52%	
COc1ccc2cc(C(CN3CCC(N4CCCC4)CC3)C3(O)CCCCC3)ccc2c1 (stereo not shown) [Example 345, 1-[1-(6-methoxy-2-naphthyl)-2-(4-pyrrolidin-1-ylpiperidin-1-yl)ethyl]cyclohexanol dihydrochloride]	65%	EC50: 530 nM
COc1ccc2cc(C(CN3CCC(N4CCCCC4)CC3)C3(O)CCCCC3)ccc2c1 (stereo not shown) [Example 346, 1-[2-(1,4′-bipiperidin-1′-yl)-1-(6-methoxy-2-naphthyl)ethyl]cyclohexanol dihydrochloride]	81%	EC50: 190 nM
